Measurements taken from US20060004028A1, “Novel PARP inhibitor” (MOCHIDA PHARMACEUTICAL CO., LTD., priority 2002, published 2006).

Work on `O=C1CCN2c3c1cccc3C(=O)NC2c1cccnc1` (stereo not drawn) yielded a melting point of 190 to 191.6 °C.
With `COc1ccc(C2NC(=O)c3cccc4c3N2CCC4=O)cc1` (stereo not drawn) [Example 1, 3-(4-methoxyphenyl)-6,7-dihydro-3H,5H-pyrido[3,2,1-ij]quinazoline-1,7(2H)-dione] the melting point was 137.4 to 144.2 °C.
With `COc1ccc(C2NC(=O)c3cccc4c3N2CCC4O)cc1` (stereo not drawn) [Example 2, 7-hydroxy-3-(4-methoxyphenyl)-6,7-dihydro-3H,5H-pyrido[3,2,1-ij]quinazoline-1(2H)-one] the melting point was 95.7 to 99.6 °C.
For `COc1ccc(C2NC(=O)c3cccc4c3N2CCC4=NO)cc1` (stereo not drawn) [Example 3, 7-hydroxyimino-3-(4-methoxyphenyl)-6,7-dihydro-3H,5H-pyrido[3,2,1-ij]quinazoline-1(2H)], the melting point was 200.8 to 211.9 °C.
For `COc1ccc([C@H]2NC(=O)c3cccc4c3N2CC[C@@H]4N)cc1` [Example 6, (−)-(3S,7S)-7-amino-3-(4-methoxyphenyl)-6,7-dihydro-3H,5H-pyrido[3,2,1-ij]quinazoline-1(2H)-one], the melting point was 110 to 112.7 °C.
With `COc1ccc([C@@H]2NC(=O)c3cccc4c3N2CC[C@H]4N)cc1` [Example 7, (+)-(3R,7R)-7-amino-3-(4-methoxyphenyl)-6,7-dihydro-3H,5H-pyrido-[3,2,1-ij]quinazoline-1(2H)-one] the melting point was 110 to 112.7 °C.
In the case of `COc1ccc(C2NC(=O)c3cccc4c3N2CCC4=O)cc1[N+](=O)[O-]` (stereo not drawn) [Example 10, 3-(4-methoxy-3-nitrophenyl)-6,7-dihydro-1H,5H-pyrido[3,2,1-ij]quinazoline-1,7-(2H)-dione], the melting point is reported as 275.4 to 277.1 °C.
`COc1ccc(C2NC(=O)c3cccc4c3N2CCC4NCc2ccc(N(C)C)cc2)cc1` (stereo not drawn) [Example 13, 7-(4-N,N-dimethylaminophenyl)methylamino-3-(4-methoxyphenyl)-6,7-dihydro-3H,5H-pyrido[3,2,1-ij]quinazoline-1(2H)-one] gave a melting point of 73.2 to 75.6 °C.
With `COc1ccc(C2NC(=O)c3cccc4c3N2CCNC4=O)cc1` (stereo not drawn) [Example 14, 3-(4-methoxyphenyl)-5,6-dihydro-3H-pyrimido[5,6,1-jk][1,4]benzdiazepin-1,8(2H,7H)-dione] the melting point was 279.9 °C (dec.).
For `O=C1CCN2c3c1cccc3C(=O)NC2c1ccccc1` (stereo not drawn) [Example 15, 3-(phenyl)-6,7-dihydro-3H,5H-pyrido[3,2,1-ij]quinazoline-1,7(2H)-dione], the melting point was 172.1 to 180.4 °C.
For `N#Cc1ccc(C2NC(=O)c3cccc4c3N2CCC4=O)cc1` (stereo not drawn) [Example 16, 3-(4-cyanophenyl)-6,7-dihydro-3H,5H-pyrido[3,2,1-ij]quinazoline-1,7(2H)-dione], the melting point was 134 to 146.9 °C.
`Cc1ccc(C2NC(=O)c3cccc4c3N2CCC4=O)cc1` (stereo not drawn) [Example 18, 3-(4-methylphenyl)-6,7-dihydro-3H,5H-pyrido[3,2,1-ij]quinazoline-1,7(2H)-dione] showed a melting point of 172.1 to 175.8 °C.
Compound `O=C1CCN2c3c1cccc3C(=O)NC2c1ccc(F)cc1` (stereo not drawn) [Example 19, 3-(4-fluorophenyl)-6,7-dihydro-3H,5H-pyrido[3,2,1-ij]quinazoline-1,7(2H)-dione] has a melting point of 216 to 224.8 °C.
For `O=C1CCN2c3c1cccc3C(=O)NC2c1ccc(F)c(F)c1` (stereo not drawn) [Example 20, 3-(3,4-difluorophenyl)-6,7-dihydro-3H,5H-pyrido[3,2,1-ij]quinazoline-1,7(2H)-dione], the melting point was 184 to 189.6 °C.
Work on `O=C1CCN2c3c1cccc3C(=O)NC2c1ccc(Br)cc1` (stereo not drawn) [Example 21, 3-(4-bromophenyl)-6,7-dihydro-3H,5H-pyrido[3,2,1-ij]quinazoline-1,7(2H)-dione] yielded a melting point of 206.2 to 214 °C.
For `O=C(O)c1ccc(C2NC(=O)c3cccc4c3N2CCC4=O)cc1` (stereo not drawn) [Example 22, 3-(4-carboxyphenyl)-6,7-dihydro-3H,5H-pyrido[3,2,1-ij]quinazoline-1,7(2H)-dione], the melting point was 154.3 to 158.9 °C.
Compound `COc1ccc(C2NC(=O)c3cc(F)cc4c3N2CCC4=O)cc1` (stereo not drawn) [Example 24, 9-fluoro-3-(4-methoxyphenyl)-6,7-dihydro-3H,5H-pyrido[3,2,1-ij]quinazoline-1,7(2H)-dione] has a melting point of 164.7 to 166 °C.
Work on `COc1ccc(C2NC(=O)c3ccc(Cl)c4c3N2CCC4=O)cc1` (stereo not drawn) [Example 25, 8-chloro-3-(4-methoxyphenyl)-6,7-dihydro-3H,5H-pyrido[3,2,1-ij]quinazoline-1,7(2H)-dione] yielded a melting point of 209.4 to 213.1 °C.
Work on `CN(C)CCCOc1ccc(C2NC(=O)c3cccc4c3N2CCC4=O)cc1` (stereo not drawn) [Example 26, 3-(4-(3-N,N-dimethylaminopropoxy)phenyl)-6,7-dihydro-3H,5H-pyrido[3,2,1-ij]quinazoline-1,7(2H)-dione] yielded a melting point of 174.3 to 178.2 °C.
`COc1ccc(C2NC(=O)c3cccc4c3N2CCC4=O)cc1Br` (stereo not drawn) [Example 27, 3-(3-bromo-4-methoxyphenyl)-6,7-dihydro-3H,5H-pyrido[3,2,1-ij]quinazoline-1,7(2H)-dione] showed a melting point of 212.8 to 215.7 °C.
With `COc1ccc(C2NC(=O)c3cccc4c3N2CCC4=O)cc1O` (stereo not drawn) [Example 28, 3-(3-hydroxy-4-methoxyphenyl)-6,7-dihydro-3H,5H-pyrido[3,2,1-ij]quinazoline-1,7(2H)-dione] the melting point was 204.7 to 212.2 °C.
Compound `O=C1CCN2c3c1cccc3C(=O)NC2c1ccc(C(F)(F)F)cc1` (stereo not drawn) [Example 35, 3-(4-trifluoromethylphenyl)-6,7-dihydro-3H,5H-pyrido[3,2,1-ij]quinazoline-1,7(2H)-dione] has a melting point of 203.1 to 208 °C.
In the case of `COc1cc(C2NC(=O)c3cccc4c3N2CCC4=O)ccc1F` (stereo not drawn) [Example 36, 3-(4-fluoro-3-methoxyphenyl)-6,7-dihydro-3H,5H-pyrido[3,2,1-ij]quinazoline-1,7(2H)-dione], the melting point is reported as 171 to 172.9 °C.
In the case of `CC(C)Oc1ccc(C2NC(=O)c3cccc4c3N2CCC4=O)cc1` (stereo not drawn) [Example 37, 3-(4-isopropoxyphenyl)-6,7-dihydro-3H,5H-pyrido[3,2,1-ij]quinazoline-1,7(2H)-dione], the melting point is reported as 175.8 to 177.1 °C.
In the case of `COc1ccc(Cc2nc(=O)c3cccc4c3n2CCC4=O)cc1` [Example 41, 3-(4-methoxyphenyl)methyl-6,7-dihydro-5H-pyrido[3,2,1-ij]quinazoline-1,7-dione], the melting point is reported as 81.4 to 82 °C.
With `COc1ccc(C2NC(=O)c3cccc4c3N2CCC4=O)cc1Cl` (stereo not drawn) [Example 42, 3-(3-chloro-4-methoxyphenyl)-6,7-dihydro-3H,5H-pyrido[3,2,1-ij]quinazoline-1,7(2H)-dione] the melting point was 174.5 to 176.9 °C.
In the case of `COc1ccccc1C1NC(=O)c2cccc3c2N1CCC3=O` (stereo not drawn) [Example 43, 3-(2-methoxyphenyl)-6,7-dihydro-3H,5H-pyrido[3,2,1-ij]quinazoline-1,7(2H)-dione], the melting point is reported as 214.7 to 219.5 °C.
`COc1cccc(C2NC(=O)c3cccc4c3N2CCC4=O)c1` (stereo not drawn) [Example 44, 3-(3-methoxyphenyl)-6,7-dihydro-3H,5H-pyrido[3,2,1-ij]quinazoline-1,7(2H)-dione] showed a melting point of 126.5 to 142.5 °C.
With `O=C1CCN2c3c1cccc3C(=O)NC2c1ccc(SC(F)(F)F)cc1` (stereo not drawn) [Example 45, 3-(4-trifluoromethylthiophenyl)-6,7-dihydro-3H,5H-pyrido[3,2,1-ij]quinazoline-1,7(2H)-dione] the melting point was 178.2 to 180.9 °C.
For `O=C1CCN2c3c1cccc3C(=O)NC2c1ccsc1` (stereo not drawn) [Example 46, 3-(3-thienyl)-6,7-dihydro-3H,5H-pyrido[3,2,1-ij]quinazoline-1,7(2H)-dione], the melting point was 190.9 to 193.4 °C.
